Experimental data taken from patent publication US20240392315A1, “COMPOSITION FOR CELL ADDITION” (priority 2021, published 2024).
Like-named read-outs stand apart in the source and are kept apart here.

Assays:
[1] = system: HEK293 cells; assay type: cell-based, human
[2] = system: AAV2-producing cells
Method: In order to identify metabolic changes that occurred in AAV2-producing cells when ethanol was added and important factors, intracellular proteins were extracted from cells with and without addition of ethanol during AAV2 production, the extracted proteins were analyzed by liquid chromatography-mass spectrometry (LC-MS) and proteins whose expression increased or decreased during AAV2 production due to the presence or absence of ethanol addition were analyzed.

[3] = system: Hela cells
Method: AAV2 was extracted from the culture supernatant and producing cells and an AAV2 solution was prepared. Three days after adding the AAV2 solution to cultured Hela cells, the number of cells expressing the GFP protein derived from the added AAV2 was measured, and the number of cells infected by the AAV2 solution per mL was calculated.

[4] = system: HEK293 cells; conditions: for Full rate / AAV2 particle number: ethanol 0.56 v/v %, AAV2 produced in cells
Method: AAV2 particles (whole particles with and without AAV2 genome) extracted from the culture supernatant and producing cells were measured using a commercially available AAV2 ELISA kit (PROGENE, AAV2 Titration ELISA) and according to the instructions of the kit.
The proportion (Full rate) of AAV2 particles containing the integrated AAV2 genome was calculated from the total number of AAV2 particles quantified by the ELISA method and the quantitative value of particles containing the integrated AAV2 genome obtained from ddPCR.

[5] = system: HEK293 cells; conditions: for culture supernatant genome titer / cell lysate genome titer / cell lysate genome integrity / culture supernatant genome integrity: ethanol 0.28 v/v %; for culture supernatant genome titer: 3 days after transfection
Text: In the same manner as in Example 1, “1.

[6] = system: HEK293 cells
[7] = 48 and 72 hours after transfection of plasmid DNA for AAV2 production
[8] = 48 hr, protein vs control (no ethanol addition)
[9] = 72 hr, protein vs control (no ethanol addition)
[10] = Downregulated pathway when ethanol was added, time after transfection
[11] = Upregulated pathway when ethanol was added, time after transfection

CO [Methanol, methanol]
genome titer ([1]; test (4), additive 0.33 v/v %, AAV2 in cells, control 2.40E+07): 2.94E+07 vg/μL | genome integrity ([1]; test (4), additive 0.33 v/v %, AAV2 in cells, control 53.4): 58.4%

CCO [ethanol]
pathway change, CLEAR Signaling Pathway [2, 7]: activated | pathway change, Estrogen Receptor Signaling [2, 7]: activated | pathway change, Interferon Signaling [2, 7]: suppressed | pathway change, NAD Signaling [2, 7]: activated | pathway change, Necroptosis Signaling Pathway [2, 7]: suppressed | pathway change, Protein Kinase A Signaling [2, 7]: activated | pathway change, Role of Hypercytokinemia/hyperchemokinemia in the Pathogenesis of influenza [2, 7]: suppressed | pathway change, Superpathway of Cholesterol Biosynthesis [2, 7]: activated | Fold Change CAPN5 [2, 8]: 2.10 | Fold Change DUSP9 [2, 8]: −1.30 | Fold Change GLUL [2, 8]: −1.80 | Fold Change GNG2 [2, 8]: 1.75 | Fold Change GNPTG [2, 8]: −1.59 | Fold Change H1-4 [2, 8]: −1.33 | Fold Change HPS5 [2, 8]: 100 | Fold Change IFI35 [2, 8]: 100 | Fold Change IFIT1 [2, 8]: −1.60 | Fold Change IFIT3 [2, 8]: −1.73 | Fold Change IFITM3 [2, 8]: 1.19 | Fold Change ISG15 [2, 8]: −1.77 | Fold Change MED14 [2, 8]: 1.16 | Fold Change MERTK [2, 8]: 1.44 | Fold Change MITF [2, 8]: −1.33 | Fold Change NAGLU [2, 8]: 100 | Fold Change NGFR [2, 8]: 2.60 | Fold Change NPRL3 [2, 8]: 100 | Fold Change PKN (paxillin) [2, 8]: −1.31 | Fold Change PRKAG2 [2, 8]: 100 | Fold Change SMAD3 [2, 8]: 100 | Fold Change TIMM10 [2, 8]: −8.00 | Fold Change TNIP1 [2, 8]: −100 | Fold Change TRPM1 [2, 8]: −2.58 | Fold Change BAX [2, 9]: 1.11 | Fold Change CAPN5 [2, 9]: 1.51 | Fold Change CCL5 [2, 9]: −1.79 | Fold Change DHCR24 [2, 9]: −1.03 | Fold Change DXO [2, 9]: 100 | Fold Change FADD [2, 9]: 1.54 | Fold Change GLUL [2, 9]: −1.91 | Fold Change GNG2 [2, 9]: 1.60 | Fold Change HADHA [2, 9]: 1.23 | Fold Change HADHB [2, 9]: 1.29 | Fold Change HMGCS1 [2, 9]: −1.21 | Fold Change HPS5 [2, 9]: 100 | Fold Change IFI35 [2, 9]: −100 | Fold Change IFIT1 [2, 9]: −1.53 | Fold Change IFIT3 [2, 9]: −1.51 | Fold Change INS [2, 9]: 1.58 | Fold Change IRE3 (interferon regulatory factor 3) [2, 9]: 1.09 | Fold Change ISG15 [2, 9]: −1.52 | Fold Change MED6 [2, 9]: −100 | Fold Change MED14 [2, 9]: 1.07 | Fold Change MITF [2, 9]: −1.28 | Fold Change MSMG1 (methylsterol monooxygenase 1) [2, 9]: −1.07 | Fold Change MT-CYB [2, 9]: 3.49 | Fold Change MT-ND4 [2, 9]: −1.65 | Fold Change NAGLU [2, 9]: −1.74 | Fold Change NFKB1 [2, 9]: 1.07 | Fold Change NGFR [2, 9]: 2.35 | Fold Change NTN1 [2, 9]: −1.60 | Fold Change POLRZI (RNA polymerase II subunit I) [2, 9]: −1.42 | Fold Change PPP1R140 (protein phosphatase 1 regulatory inhibitor subunit 14C) [2, 9]: −1.29 | Fold Change PRKAG2 [2, 9]: 100 | Fold Change PTPRK [2, 9]: −1.31 | Fold Change RAF1 [2, 9]: −1.29 | Fold Change RXRA [2, 9]: −1.40 | Fold Change SC5D [2, 9]: 100 | Fold Change SLC29A1 [2, 9]: −1.28 | Fold Change TIMM10 [2, 9]: 1.51 | Fold Change TNIP1 [2, 9]: −100 | Fold Change TOMM6 [2, 9]: 1.63 | Fold Change TOMM7 [2, 9]: −1.40 | Fold Change TP53 [2, 9]: −1.18 | Regulated timing, Interferon Signaling [2, 10]: 48 hr, 72 hr | Regulated timing, Necroptosis Signaling Pathway [2, 10]: 48 hr, 72 hr | Regulated timing, Role of Hypercytokinemia/hyperchemokinemia in the Pathogenesis of influenza [2, 10]: 72 h | Regulated timing, Activation of IRF by Cytosolic Pattern recognition receptors ([2]; Pathway where change was identified when ethanol was added, time after transfection): 72 h | Regulated timing, CLEAR Signaling Pathway [2, 11]: 48 hr, 72 hr | Regulated timing, Estrogen Receptor Signaling [2, 11]: 72 h | Regulated timing, NAD Signaling [2, 11]: 72 h | Regulated timing, Protein Kinase A Signaling [2, 11]: 48 hr, 72 hr | Regulated timing, Superpathway of Cholesterol Biosynthesis [2, 11]: 72 h | infection titer (infecting cells and expressing GFP per volume of lysate) ([3]; AAV2 vector produced with ethanol addition vs control, Table 4): high | infection titer ([3]; ethanol 0.56 v/v %, intracellular AAV2 extract, same amount of genome titer, control 1.36E+08): 1.63E+08 ifu/mL | genome titer of AAV2 both in cells and in the culture supernatant ([1]; ethanol 0.09 to 2.2 V/V %, particularly at not exceeding 1.1 v/v %, vs no ethanol, FIG. 1A, 1B): improved | genome integrity ([1]; ethanol 0.56 v/v %, intracellular AAV2 extract, control 45.6): 54.7% | genome titer ([1]; ethanol 0.56 v/v %, intracellular AAV2 extract, ddPCR primer for ITR region, control 4.40E+07): 6.59E+07 vg/μL | percentage of integrated genome in AAV2 in the producing cells ([1]; ethanol added within the range of about 2v/v %, FIG. 2A): clearly higher | proportion of the integrated genome in AAV2 ([1]; ethanol addition during AAV2 production, FIG. 2A, 2B): improved | genome titer ([1]; test (1), ethanol 0.56 v/v %, AAV2 produced in cells, control 2.26E+07): 5.05E+07 vg/μL | genome titer ([1]; test (2), ethanol 0.56 v/v %, AAV2 produced in cells, control 3.23E+07): 3.81E+07 vg/μL | rate of incorporation of AAV2-derived genome into the produced AAV2 capsid ([4]; AAV2 produced with addition of ethanol vs control, Table 3): higher | Full rate ([4]; test (1), control 2.30): 3.58% | AAV2 particle number ([4]; test (1), control 9.86E+11): 1.41E+12 particles/mL | AAV2 particle number ([4]; test (2), control 1.04E+12): 1.13E+12 particles/mL | Full rate ([4]; test (2), control 3.12): 3.38% | culture supernatant genome titer ([5]; AAV1, control 3.34E+06): 5.09E+06 vg/μL | cell lysate genome titer ([5]; AAV1, control 2.67E+06): 4.67E+06 vg/μL | cell lysate genome integrity ([5]; AAV1, control 43.3): 54.2% | culture supernatant genome integrity ([5]; AAV1, control 49.3): 58.6% | culture supernatant genome titer ([5]; AAV6, control 1.20E+05): 1.08E+05 vg/μL | cell lysate genome titer ([5]; AAV6, control 1.60E+07): 2.05E+07 vg/μL | culture supernatant genome integrity ([5]; AAV6, control 23.7): 28.6% | cell lysate genome integrity ([5]; AAV6, control 51.8): 55.1% | amount of AAV1 produced (genome titer) and genome integrity, in culture supernatant and within cells ([5]; when ethanol was added): improved | amount of AAV6 produced within cells (genome titer) ([5]; when ethanol was added): improved | genome integrity of AAV6 in culture supernatant and within cells ([5]; when ethanol was added): improved | cell proliferation rate during AAV2 production ([6]; ethanol amounts where intracellular AAV2 genome titer is higher than control): equivalent to or higher than in the control condition | viability of the producing cells on day 3 after transfection ([6]; ethanol amounts where intracellular AAV2 genome titer is higher than control, FIG. 1C): maintained higher than in the control condition

CC(C)O [Isopropanol, isopropanol]
genome titer ([1]; test (4), additive 0.61 v/v %, AAV2 in cells, control 2.40E+07): 2.26E+07 vg/μL | genome integrity ([1]; test (4), additive 0.61 v/v %, AAV2 in cells, control 53.4): 58.5%

C[S+](C)[O-] [DMSO, dimethyl sulfoxide]
improving integrity of the genome in produced AAV2 and genome titer (productivity) ([1]; DMSO, Table 8): effective | genome titer ([1]; test (5), additive 0.57 v/v %, AAV2 produced in cells, control 2.40E+07): 3.35E+07 vg/μL | genome integrity ([1]; test (5), additive 0.57 v/v %, AAV2 produced in cells, control 53.4): 59.3% | TFday 3 VCD ([6]; test (5), additive 0.57 v/v %, day 3 after transfection, control 4.17E+06): 4.58E+06 cells/mL | TF day 3 Viability ([6]; test (5), additive 0.57 v/v %, day 3 after transfection, control 78.5): 81.5% | cell growth and substance production ([6]; when the concentration is low): improving

OCC(O)CO [Glycerol, glycerol]
genome titer ([1]; test (3), additive 0.73 v/v %, AAV2 in cells, 3 days after transfection, control 2.26E+07): 4.50E+07 vg/μL | genome integrity ([1]; test (3), additive 0.73 v/v %, AAV2 in cells, control 51.9): 58.9% | genome titer ([1]; test (4), additive 0.38 v/v %, AAV2 in cells, control 2.40E+07): 2.78E+07 vg/μL | genome integrity ([1]; test (4), additive 0.38 v/v %, AAV2 in cells, control 53.4): 55.2% | genome titer ([1]; test (4), additive 1.15 v/v %, AAV2 in cells, control 2.40E+07): 3.66E+07 vg/μL | genome integrity ([1]; test (4), additive 1.15 v/v %, AAV2 in cells, control 53.4): 58.5%
